Data from US9695395B2, “Generation and maintenance of stem cells” (The Scripps Research Institute, priority 2008, dated 2017).

What was measured:
EpiSCs = test: Conversion of EpiSCs to mESC-like state by chemical compounds (colony morphology, ALP, selection); type: cell-based, murine; conditions: for effect on EpiSCs under mESC culture condition supplemented with LIF: feeder cells, 0.5 μM A-83-01, 0.5 μM PD0325901, 0.1 μM PD173074, 3 μM CHIR99021 where present
Method: EpiSCs differentiated in conventional mESC growth medium supplemented with LIF (bottom left); EpiSCs differentiated in conventional mESC growth medium supplemented with LIF and 0.5 μM MEK inhibitor PD0325901, 0.1 μM FGFR inhibitor PD173074 and 3 μM GSK3 inhibitor CHIR99021 (m/MFGi) (bottom right). […] EpiSCs were trypsinized to single cells, and plated on feeder cells under the mESC self-renewal condition with supplements of the indicated chemical compounds for about 4 days to induce conversion, followed by another 4 days of selection. The culture was subsequently replated and further selected and expanded for another two weeks, during which time stable clones were picked.
To test this hypothesis, EpiSCs were trypsinized to single cells and plated under mESC self-renewal conditions, based on the notion that “converted” mESC-like cells within EpiSC colonies would be captured/selected and expanded under the conditions that promote self-renewal of mESCs but induce differentiation of EpiSCs. […] Given that the “spontaneous” conversion from EpiSCs to mESCs might be very inefficient, a stronger and more stringent differential self-renewal promoting and differentiation inducing condition might be required to select/capture and expand those “rare” converted mESC-like cells from EpiSCs (e.g. achieving cleaner phenotypic distinction and minimizing the overgrowth of differentiated EpiSCs).
EpiSCs (line EpiSC-5, male) were maintained on irradiated CF1 MEFs in human ESC medium supplemented with 10 ng/ml bFGF as described previously (Tesar et al., Nature 448, 196-199, 2007). EpiSCs were passaged every 3-4 days with 1 mg/ml collagenase type IV (Invitrogen). The R1 mESCs were cultured on irradiated CF1 MEFs with conventional mESC growth media, which consist of Knockout DMEM (Invitrogen) supplemented with 20% KSR (Invitrogen), 0.1 mM 2-ME (Sigma-Aldrich), 2 mM L-glutamine (Invitrogen), 0.1 mM NEAA (Invitrogen), and 10^3 units/ml recombinant murine leukemia inhibitory factor (LIF) (ESGRO, Millipore). The mESCs and converted cells were passaged every 3 days as a single cell suspension using 0.05% trypsin/EDTA and seeded at 1.0×10^4 cells per cm^2 for routine culture.

BMP receptors = conditions: Tojo et al., 2005; cited from earlier work
riPSCs = test: Maintaining the pluripotency of riPSCs in culture with small molecule combinations; type: cell-based, rat; conditions: 0.1 μM, added to the combination of PD0325901 and CHIR99021
Method: FIG. 5A-B. The effects of different small molecule combinations on maintaining the pluripotency of riPSCs in culture. riPSCs were trypsinized into single cells and seeded into 6-well plate at the density of 10^3 cells per well and treated with different inhibitor combinations. Five days latter, ALP staining was performed to visualize the riPSC colonies (A). The ALP positive colonies for each condition were counted from ten random 40× visual fields and the relative colony number was summarized in (B).
WB-F344, a diploid rat liver progenitor cell line (Grisham et al., Proc Soc Exp Biol Med 204, 270-279 (1993)), were transduced with Oct4, Sox2 and Klf4 by retroviruses and then split onto MEF feeder cells in the conventional mESC medium. Compact and alkaline phosphatase (ALP) positive ESC-like colonies were observed 10 days after transduction (the efficiency is about 0.4%) (FIG. 1A). […] Given the notion that small molecules can inhibit key differentiation-inducing pathways, we and others have previously identified and used small molecules to support mESC self-renewal in a more robust manner (Schugar et al., Gene Ther 15, 126-135 (2008); Xu et al., Nat Biotechnol 20, 1261-1264 (2002)). […]

For `Cc1cccc(-c2nn(C(=S)Nc3ccccc3)cc2-c2ccnc3ccccc23)n1` [A-83-01, 3-(6-Methyl-2-pyridinyl)-N-phenyl-4-(4-quinolinyl)-1H-pyrazole-1-carbothioamide], the “effect on EpiSCs under EpiSC/hESC culture condition supplemented with bFGF” value (EpiSCs; 0.5 μM) was “induced rapid differentiation of EpiSCs”, the “colonies that could self-renew and maintain ALP activity” value (EpiSCs; A-83-01 treated colonies exposed to 2PD/LIF condition for selection) was “more than 50%” and the “effect on EpiSCs under mESC culture condition supplemented with LIF” value (EpiSCs) was “form more compact and domed colonies that resemble mESC colony morphology and express ALP”. The “cross inhibitory effect on the BMP receptors” value (BMP receptors) was “no cross inhibitory effect”.
With `Cc1c[nH]c(-c2cnc(NCCNc3ccc(C#N)cn3)nc2-c2ccc(Cl)cc2Cl)n1` [CHIR99021] the “effect of adding CHIR99021 to the 2PD/LIF condition” value (EpiSCs; 3 μM CHIR99021) was “did not promote or capture the conversion of EpiSCs to mESC-like state”.
With `CCN(CC)CCCCNc1ncc2cc(-c3cc(OC)cc(OC)c3)c(NC(=O)NC(C)(C)C)nc2n1` [PD173074] the “effect of including PD173074 in medium” value (riPSCs) was “didn't show further benefit”.
For `N[C@@H]1C[C@H]1c1ccccc1` [parnate], the “effect on EpiSCs under mESC culture condition supplemented with LIF” value (EpiSCs) was “form more compact and domed colonies that express ALP”, the “EpiSCs that formed small and compact colonies” value (EpiSCs; four days of 2 μM parnate treatment, mESC growth condition) was 70-80% and the “cells that survived the selection as domed and ALP positive colonies” value (EpiSCs; parnate-treated cells selected with 2PD/LIF) was “roughly 20%”.
